The target of test [1] is T1, SARS-CoV-2 PLpro (Severe acute respiratory syndrome coronavirus 2, UniProt P0DTD1). As to the kind of experiment: biochemical. Type of test: biochemical.
Test [2] addresses T1, SARS-CoV-2 PLpro. As to the kind of experiment: Pro-ISG15 cleavage assay. The class given is biochemical. Particulars: for inhibition at 20 µM / inhibition at 10 µM: read-out: Inhibition rate of PLpro-mediated deISGylation; for Inhibition rate of PLpro-mediated deISGylation: 20 μM compound, 50 nM PLpro, 350 nM pro-ISG15, 10 min, 37 °C.
The mark [3] stands for this setting: IC50 (50% inhibition of PLpro anti-proteolytic activity), 50 nM PLpro, 50 μM Z-RLRGG-AMC, 10 mM DTT, pH 8.0, 37 °C, mean ± SD.

The structures appear in SMILES notation. Where two headings read alike, the source gives them in different places.

With `COc1ccc(-c2cc(=O)c3c(O)cc(O)cc3o2)cc1` [Acacetin, acacetin, reference compound], the IC50 (in general, the concentration that inhibits the measured activity by half) against SARS-CoV-2 PLpro [1] (setting [3]) is 91.2 ± 11.3 µM.
On SARS-CoV-2 PLpro [1] (setting [3]), `O=c1cc(-c2ccc(O)cc2)oc2cc(O)cc(O)c12` [Apigenin, apigenin, reference compound] gave a 50% inhibitory concentration (IC50) of 75.7 ± 6.4 µM.
`O=c1cc(-c2ccc(O)c(-c3c(O)cc(O)c4c(=O)cc(-c5ccc(O)cc5)oc34)c2)oc2cc(O)cc(O)c12` [Compound 1, amentoflavone]: the inhibition – broadly, the drop in the measured response relative to a control, in per cent – at 20 µM at SARS-CoV-2 PLpro [2] came out at 48.1%. Also, on SARS-CoV-2 PLpro [1], affinity was put at a Ki of 9.1 ± 0.7 µM. The midpoint of inhibition on SARS-CoV-2 PLpro [1] (setting [3]), the IC50, lay at 13 ± 1.2 µM.
On to `COc1ccc(-c2cc(=O)c3c(O)cc(O)c(-c4cc(-c5cc(=O)c6c(O)cc(O)cc6o5)ccc4O)c3o2)cc1` [Compound 2, podocarpusflavone A], for which, at SARS-CoV-2 PLpro [2], the inhibition at 10 µM was in the range of 53.2 to 71.1% and the inhibition at 20 µM was in the range of 64.9 to 74.8%. Besides, the Ki (usually a measure of affinity in units of concentration, obtained from inhibition or displacement) on SARS-CoV-2 PLpro [1] amounted to 36.5 ± 4.2 µM. Also, half-maximal inhibition against SARS-CoV-2 PLpro [1] (setting [3]) (IC50) was put at 43.2 ± 2.9 µM.
For `COc1cc(O)c2c(=O)cc(-c3ccc(OC)c(-c4c(O)cc(O)c5c(=O)cc(-c6ccc(O)cc6)oc45)c3)oc2c1` [Compound 3, ginkgetin], on SARS-CoV-2 PLpro [2], the “Inhibition rate of PLpro-mediated deISGylation” value (shortened to “Inhibition rate”) is “near complete inhibition” and the inhibition at 10 µM is 53.2 to 71.1%. Besides, at SARS-CoV-2 PLpro [1], the Ki was 17.7 ± 1.1 µM. On SARS-CoV-2 PLpro [1] (setting [3]), this molecule gave an IC50 of 29.8 ± 1.5 µM.
For `COc1ccc(-c2cc(=O)c3c(O)cc(O)c(-c4cc(-c5cc(=O)c6c(O)cc(O)cc6o5)ccc4OC)c3o2)cc1` [Compound 4, isoginkgetin], at SARS-CoV-2 PLpro [2], the “Inhibition rate” value was “near complete inhibition” and the inhibition at 10 µM was in the range of 53.2 to 71.1%. Moreover, the Ki at SARS-CoV-2 PLpro [1] was determined as 26.5 ± 2.8 µM. On SARS-CoV-2 PLpro [1] (setting [3]), it took 31.2 ± 3.4 µM to reach half-maximal inhibition (IC50).
In the case of `O=C1c2c(O)cc(O)cc2O[C@H](c2ccc(O)cc2)[C@H]1c1c(O)cc(O)c2c(=O)cc(-c3ccc(O)c(O)c3)oc12` [Compound 6, morelloflavone], the inhibition at 20 µM on SARS-CoV-2 PLpro [2] was 32.3 to 34.1%. Also, on SARS-CoV-2 PLpro [1], the “Inhibition mode (Dixon plot)” value was “non-competitive inhibition” and the Ki came out at 30.7 ± 2.9 µM. The molecule also showed an IC50 against SARS-CoV-2 PLpro [1] (setting [3]) of 36.4 ± 4.8 µM.
Regarding `O=c1cc(-c2ccc(Oc3c(O)cc4oc(-c5ccc(O)cc5)cc(=O)c4c3O)cc2)oc2cc(O)cc(O)c12` [Compound 7, hinokiflavone], on SARS-CoV-2 PLpro [2], the “Inhibition rate” value is given as “near complete inhibition” and the inhibition at 10 µM is 65.6 to 98%. Moreover, at SARS-CoV-2 PLpro [1], the affinity corresponds to a Ki of 7.8 ± 0.5 µM. For the same molecule, at SARS-CoV-2 PLpro [1] (setting [3]), the IC50 worked out at 9.5 ± 1.2 µM. The “Fold more potent anti-proteolytic activity than di-methylated counterpart 8” value on SARS-CoV-2 PLpro [1] (ratio of IC50 values, 7 vs 8) is given as 2.8 fold.
`CC(C)=CCc1cc2c(cc1O)oc(=O)c1c3ccc(O)cc3oc21` [Psoralidin, reference compound]: at SARS-CoV-2 PLpro [1] (read-out: IC50 (50% inhibition of PLpro anti-proteolytic activity), pH 8), the IC50 is 27.8 ± 2.2 µM.

For the origin of these results see PMC8506144 (Phytochemistry, 2021).
